The values that follow come from patent US9394331B2, “2′-spiro-nucleosides and derivatives thereof useful for treating hepatitis C virus and dengue virus infections” (priority 2010, dated 2016).

The test system of series [1] is HCV replicon. In words: HCV replicon assay (Clone A cells and ET-lunet cells, HCV RNA by real time PCR). Particulars: for EC90: read-out: EC90, anti-HCV 1b activity. It is filed as cell-based, hepatitis C virus. The protocol:
HCV replicon assay. HCV replicon assays using Clone A cells and ET-lunet cells were performed as described previously. L. J. Stuyver et al. Antimicrob. Agents Chemother. 2004, 48, 651-654. Briefly, Clone A cells and ET-lunet cells were seeded at a density of 1500 and 3000 cells per well in a 96-well plate, respectively. Test compounds serially diluted in culture medium without G418 were added to cells. Plates were incubated at 37° C. in a 5% CO2 atmosphere for 4 days. Inhibition of HCV RNA replication was determined by quantitative real time PCR. See, e.g., L. J. Stuyver et al. Antiviral Chem. Chemother. 2006, 17, 79-87.
To express the antiviral effectiveness of a compound, the threshold RT-PCR cycle of the test compound was subtracted from the average threshold RT-PCR cycle of the no-drug control (ΔCtHCV). A ΔCt of 3.3 equals a 1-log 10 reduction (equal to the 90% effective concentration [EC90]) in replicon RNA levels. The cytotoxicity of the test compound could also be expressed by calculating the ΔCtrRNA values. The ΔΔCt specificity parameter could then be introduced (ΔCtHCV-ΔCtrRNA), in which the levels of HCV RNA are normalized for the rRNA levels and calibrated against the no-drug control.

The test system of series [2] is Dengue 2 strain New Guinea C. In words: Dengue CPE assay. In kind it is cell-based, Dengue virus 2. Particulars: Table 6, BHK-21 cells, 3 days, 50% cells surviving, read-out: EC50, activity against dengue virus. The protocol: Dengue CPE Assay. To measure cytopathic effect of Dengue virus 2, BHK-21 ([…], CCL-10 ATCC Manassas, Va.) cells were seeded at a density of 20,000 cells/well in a 96-well black/clear bottom plates (Becton Dickinson, Franklin Lakes, N.J.) one day prior to start of the assay and allowed to attach overnight in EMEM (ATCC Manassas, Va.) +10% FBS (Invitrogen, Carlsbad, Calif.) at 37° C. in a humidified 5% CO2 atmosphere. The next day, the medium was removed and the cells were infected with Dengue 2 strain New Guinea C (VR-1584, ATCC Manassas, Va.) at an MOI of 0.08 pfu/cell for two hours in 50 μL EMEM+2% FBS. For both the single point and dose response assays, compounds (2× concentration) were diluted in EMEM+2% FBS and 50 μL was added to infected cells without removing virus. Cells were incubated for 3 days at 37° C. in a humidified 5% CO2 atmosphere. The medium was aspirated and 50 μL of CellTiter-Glo (Promega, Madison, Wis.) was added to each well and read for 0.1 seconds on a Perkin Elmer Victor3 (Waltham, Mass.) plate reader. Percent survival was determined by subtracting the average value of infected control wells and normalizing to the non-infected wells. The effective concentration was calculated from the dose response data by forecasting 50% cells surviving with drug treatment.

The nature of series [3]: Cytotoxicity reported with the dengue assay. It is filed as cell-based. Particulars: Table 6; cell line not stated.
The nature of series [4]: Cell cytotoxicity assay (MTS). It is filed as cell-based. Particulars: human. Here is the method: Cell cytotoxicity assays. Each compound (serially diluted from 100 μM) was added to Huh7 (2×10^3 cells/well), HepG2 (2×10^3 cells/well), BxPC3 (2×10^3 cells/well), or CEM (5×10^3 cells/well) cells and allowed to incubate for 8 days at 37° C. A medium only control was used to determine the minimum absorbance value […]. At the end of the growth period, MTS dye from the CellTiter 96 Aqueous One Solution Cell Proliferation Assay kit (Promega) was added to each well and the plate was incubated for an additional 2 hours. The absorbance at 490 nm was read with a Victor3 plate reader (Perkin Elmer) using the medium only control wells as blanks. The 50% inhibition value (CC50) was determined by comparing the absorbance in wells containing cells and test compound to untreated cell control wells.

Where [5] appears, read: Hepatitis C virus, 96 h, Table 1, HCV replicon, 4 days, read-out: EC50, anti-HCV activity of selected nucleosides.
[6] abbreviates: Hepatitis C virus, Table 2, HCV 1b replicon, unit inferred, read-out: EC50, anti-HCV 1b activity.
[7] abbreviates: Hepatitis C virus, 96 h, Table 4, cyclic phosphates, diastereomeric mixtures, read-out: EC50, anti-HCV 1b activity.
Setting [8] is: Hepatitis C virus, 96 h, Table 4, cyclic phosphates, diastereomeric mixtures.

Read-outs that look alike come from different tables or passages of the source.

With `O=c1ccn([C@@H]2O[C@H](CO)[C@@H](O)[C@@]23CCCO3)c(=O)[nH]1` [compound 32, 1-((5 S,6R,8R,9R)-9-hydroxy-8-(hydroxymethyl)-1,7-dioxaspiro[4.4]nonan-6-yl)pyrimidine-2,4(1H,3H)-dione], the EC50 in series [1] (setting [5]) was more than 100 µM. With `O=c1ccn([C@@H]2O[C@H](CO)[C@@H](O)[C@@]23CCO3)c(=O)[nH]1` [compound 36, 1-((4S,5R,7R,8R)-8-hydroxy-7-(hydroxymethyl)-1,6-dioxaspiro[3.4]octan-5-yl)pyrimidine-2,4(1H,3H)-dione], in series [1] (setting [5]), the EC50 is more than 100 µM. As for `O=c1ccn([C@@H]2O[C@H](CO)[C@@H](O)[C@]23CCCO3)c(=O)[nH]1` [compound 44, 1-((5R,6R,8R,9R)-9-hydroxy-8-(hydroxymethyl)-1,7-dioxaspiro[4.4]nonan-6-yl)pyrimidine-2,4(1H,3H)-dione], the concentration for a half-maximal effect (EC50) in series [1] (setting [5]) was more than 100 µM. Same read-out and setting: the same measure for `O=c1ccn([C@@H]2O[C@H](CO)[C@@H](O)[C@]23CCO3)c(=O)[nH]1` [compound 48, 1-((4R,5R,7R,8R)-8-hydroxy-7-(hydroxymethyl)-1,6-dioxaspiro[3.4]octan-5-yl)pyrimidine-2,4(1H,3H)-dione]: more than 100 µM.

`Nc1ccn([C@@H]2O[C@H](CO)[C@@H](O)[C@]23CCCO3)c(=O)n1` [compound 49, 4-amino-1-((5R,6R,8R,9R)-9-hydroxy-8-(hydroxymethyl)-1,7-dioxaspiro[4.4]nonan-6-yl)pyrimidin-2(1H)-one]: the EC50 in series [1] (setting [5]) is more than 100 µM.

As to `Nc1ccn([C@@H]2O[C@H](CO)[C@@H](O)[C@@]23CCCO3)c(=O)n1` [compound 50, 4-amino-1-((5S,6R,8R,9R)-9-hydroxy-8-(hydroxymethyl)-1,7-dioxaspiro[4.4]nonan-6-yl)pyrimidin-2(1H)-one], the EC50 in series [1] (setting [5]) was more than 100 µM. In the case of `Nc1ccn([C@@H]2O[C@H](CO)[C@@H](O)[C@@]23CCO3)c(=O)n1` [compound 51, 4-amino-1-((4S,5R,7R,8R)-8-hydroxy-7-(hydroxymethyl)-1,6-dioxaspiro[3.4]octan-5-yl)pyrimidin-2(1H)-one], the EC50 in series [1] (setting [5]) was more than 100 µM. Turning to `Nc1ccn([C@@H]2O[C@H](CO)[C@@H](O)[C@]23CCO3)c(=O)n1` [compound 52, 4-amino-1-((4R,5R,7R,8R)-8-hydroxy-7-(hydroxymethyl)-1,6-dioxaspiro[3.4]octan-5-yl)pyrimidin-2(1H)-one], the EC50 in series [1] (setting [5]) was more than 54.5 µM.

For `COc1nc(N)nc2c1ncn2[C@@H]1O[C@H](CO)[C@@H](O)[C@@]12CCCO2` [compound 62, (5S,6R,8R,9R)-6-(2-amino-6-methoxy-9H-purin-9-yl)-8-(hydroxymethyl)-1,7-dioxaspiro[4.4]nonan-9-ol], the EC50 in series [1] (setting [5]) was more than 20 µM. The same measure, in the same setting: next, `COc1nc(N)nc2c1ncn2[C@@H]1O[C@H](CO)[C@@H](O)[C@@]12CCO2` [compound 66, (4S,5R,7R,8R)-5-(2-amino-6-methoxy-9H-purin-9-yl)-7-(hydroxymethyl)-1,6-dioxaspiro[3.4]octan-8-ol]: more than 20 µM; `COc1nc(N)nc2c1ncn2[C@@H]1O[C@H](CO)[C@@H](O)[C@]12CCCO2` [compound 72, (5R,6R,8R,9R)-6-(2-amino-6-methoxy-9H-purin-9-yl)-8-(hydroxymethyl)-1,7-dioxaspiro[4.4]nonan-9-ol]: more than 20 µM.

Regarding `COc1nc(N)nc2c1ncn2[C@@H]1O[C@H](CO)[C@@H](O)[C@]12CCO2` [compound 76, (4R,5R,7R,8R)-5-(2-amino-6-methoxy-9H-purin-9-yl)-7-(hydroxymethyl)-1,6-dioxaspiro[3.4]octan-8-ol], the EC50 in series [1] (setting [5]) is more than 100 µM.

On to `Nc1nc2c(ncn2[C@@H]2O[C@H](CO)[C@@H](O)[C@]23CCO3)c(=O)[nH]1` [compound 77, 2-amino-9-((4R,5R,7R,8R)-8-hydroxy-7-(hydroxymethyl)-1,6-dioxaspiro[3.4]octan-5-yl)-1H-purin-6(9H)-one], for which, in series [1] (setting [5]), the EC50 is more than 20 µM. For the molecule `COC(=O)[C@H](C)NP(=O)(OC[C@H]1O[C@@H](n2cnc3c(OC)nc(N)nc32)[C@@]2(CCO2)[C@@H]1O)Oc1ccccc1` (stereo partly drawn) [compound 113, (2S)-methyl 2-(((((4R,5R,7R,8R)-5-(2-amino-6-methoxy-9H-purin-9-yl)-8-hydroxy-1,6-dioxaspiro[3.4]octan-7-yl)methoxy)(phenoxy)phosphoryl)amino)propanoate], the EC50 in series [1] (setting [6]) turned out to be 1.55 µM; in series [2] (Dengue virus, BHK-21, 72 h), 6.23 µM. In series [3], this molecule displayed a CC50 of more than 20 µM. With `COC(=O)[C@H](C)NP(=O)(OC[C@H]1O[C@@H](n2ccc(=O)[nH]c2=O)[C@]2(CCCO2)[C@@H]1O)Oc1ccccc1` (stereo partly drawn) [compound 114, (2S)-methyl 2-(((((5S,6R,8R,9R)-6-(2,4-dioxo-3,4-dihydropyrimidin-1 (2H)-yl)-9-hydroxy-1,7-dioxaspiro[4.4]nonan-8-yl)methoxy)(phenoxy)phosphoryl)amino)propanoate], the half-maximal effective concentration (EC50) in series [1] (setting [6]) was found to be 20.6 µM. Turning to `COC(=O)[C@H](C)NP(=O)(OC[C@H]1O[C@@H](n2ccc(=O)[nH]c2=O)[C@]2(CCO2)[C@@H]1O)Oc1ccccc1` (stereo partly drawn) [compound 115, (2S)-methyl 2-(((((4S,5R,7R,8R)-5-(2,4-dioxo-3,4-dihydropyrimidin-1 (2H)-yl)-8-hydroxy-1,6-dioxaspiro[3.4]octan-7-yl)methoxy)(phenoxy)phosphoryl)amino)propanoate], in series [1] (setting [6]), the EC50 came out at 28.5 µM. For `COC(=O)[C@H](C)NP(=O)(OC[C@H]1O[C@@H](n2ccc(=O)[nH]c2=O)[C@@]2(CCCO2)[C@@H]1O)Oc1ccccc1` (stereo partly drawn) [compound 116, (2S)-methyl 2-(((((5R,6R,8R,9R)-6-(2,4-dioxo-3,4-dihydropyrimidin-1 (2H)-yl)-9-hydroxy-1,7-dioxaspiro[4.4]nonan-8-yl)methoxy)(phenoxy)phosphoryl)amino)propanoate], the EC50 in series [1] (setting [6]) came out at 28.3 µM. Same read-out and setting: the same measure for `COC(=O)[C@H](C)NP(=O)(OC[C@H]1O[C@@H](n2ccc(=O)[nH]c2=O)[C@@]2(CCO2)[C@@H]1O)Oc1ccccc1` (stereo partly drawn) [compound 117, (2S)-methyl 2-(((((4R,5R,7R,8R)-5-(2,4-dioxo-3,4-dihydropyrimidin-1 (2H)-yl)-8-hydroxy-1,6-dioxaspiro[3.4]octan-7-yl)methoxy)(phenoxy)phosphoryl)amino)propanoate]: 16.7 µM. Take `COc1nc(N)nc2c1ncn2C1OC(COP(=O)(N[C@@H](C)C(=O)OC(C)C)Oc2ccccc2)[C@@H](O)[C@]12CCO2` (stereo partly shown) [compound 118]: the EC50 amounted to 1.49 µM in series [1] (Table 3, HCV 1b replicon, read-out: EC50, anti-HCV 1b activity) and 5.06 µM in series [2]. Besides, in series [1] (Table 3, HCV 1b replicon), the EC90 was 3.44 µM. The CC50 at 8 days in series [4] (Table 3, cell line not stated, read-out: CC50) is more than 20 µM. In series [3], this molecule showed a CC50 of more than 20 µM.

As for `COc1nc(N)nc2c1ncn2C1OC2COP(=O)(OCC(C)(C)C)O[C@H]2[C@]12CCO2` (stereo partly shown) [compound 132], the EC50 in series [1] (setting [7]) is more than 20 µM. Also, in series [1] (setting [8]), the EC90 was more than 20 µM. This molecule displayed a CC50 at 8 days in series [4] of more than 20 µM.

For `COc1nc(N)nc2c1ncn2C1OC2COP(=O)(OC(C)C)O[C@H]2[C@]12CCO2` (stereo partly shown) [compound 133], the EC50 in series [1] (setting [7]) is more than 20 µM. For the same molecule, the EC90 in series [1] (setting [8]) was more than 20 µM. In addition, in series [4], the 50% cytotoxic concentration (CC50) at 8 days is more than 20 µM. In the case of `COc1nc(N)nc2c1ncn2C1OC2COP(=O)(OC3CCCC3)O[C@H]2[C@]12CCO2` (stereo partly shown) [compound 134], in series [1] (setting [8]), the EC90 is more than 20 µM. Besides, the EC50 in series [1] (Hepatitis C virus, Table 4, cyclic phosphates, diastereomeric mixtures, read-out: EC50, anti-HCV 1b activity) came to 14 µM. For the same molecule, the CC50 at 8 days in series [4] is more than 20 µM.
